Results reported in patent publication US7317014B2, “Bio-active pyrimidine molecules” (Orchid Research Laboratories, Ltd., priority 2002, dated 2008).

How the values were obtained:
IL-6 = IL-6 production from LPS-stimulated human monocytes (ELISA); type: cell-based; conditions: Monocyte; for inhibition at 1 µM: Conc. 1 μM; for inhibition at 10 µM: Conc. 10 μM
Experimental: Interleukin-6(IL-6) This assay determines the effect of test compounds on the production of IL-6 from human monocytes. Compounds are tested for their ability to downregulate the production of IL-6 in activated monocytes. Test compounds were incubated for three, six and twenty four hours with human monocytes. Lipopolysaccharide was used to stimulate the monocytes. The level of Interleukin-6 is quantitated using Enzyme-Linked Immunosorbent assay performed in a 96 well format.

TNF-α = TNF-α production from LPS-stimulated human monocytes (ELISA); type: cell-based; conditions: Monocyte
MCF7 = assay: DTP human tumor cell line one-dose prescreen, MCF7; type: cell-based; conditions: Concentration (100 μm), Breast MCF7, test/control (T/C)
Experimental: (§1) The current assay utilizes a 384 well plate format and fluorescent staining technologies resulting in greater screening capacity for testing of synthetic samples. Cell Lines The cell lines of the cancer screening panel are grown in RPMI 1640 medium containing 5% fetal bovine serum and 2 mM L-glutamine. For a typical screening experiment, cells are inoculated into 96 well microtiter plates in 100 μL. After cell inoculation, the microtiter plates are incubated at 37° C., 5% CO2, 95% air and 100% relative humidity for 24 h prior to addition of experimental drugs. The cells are plated a densities of 5000 cells/well (MCF7), 1000 cells/well (NCI-H460), and 7500 cells/well (SF-268) to allow for varying doubling time of the cell lines. Each plate contains all three cell lines, a series of dilutions of standard agents, total kill wells and appropriate controls. Plates are incubated under standard conditions for 24 hours prior to addition of experimental compounds or extracts. Addition of Experimental Agents (Pure Compounds) […] Two standard drugs, meaning that their activities against the cell lines are well documented, are tested against each cell line: NSC 19893 (5-FU) and NSC 123127 (Adriamycin). Endpoint Measurement After compound addition, plates are incubated at standard conditions for ?hours, 10 μl/well Alamar Blue is added and the plates are incubated for an additional 4 hours. Fluorescence is measured using an excitation wavelength of 530 nm and an emission wavelength of 590 nm. Calculation of Percent Test Cell Growth/Control (Untreated) Cell Growth (T/C) Calculation of Percent Test Cell Growth/Control (Untreated) Cell Growth (T/C) Percent growth is calculated on a plate-by-plate basis for test wells relative to control wells. Percent Growth is expressed as the ratio of fluorescence of the test well to the average fluorescence of the control wells ×100.

NCI-H460 = assay: DTP human tumor cell line one-dose prescreen, NCI-H460; type: cell-based; conditions: Concentration (100 μm), Lung NCI-H460, test/control (T/C)
Experimental: as §1

SF-268 = assay: DTP human tumor cell line one-dose prescreen, SF-268; type: cell-based; conditions: Concentration (100 μm), CNS SF-268, test/control (T/C)
Experimental: as §1

Male Wistar rats = assay: Rat carrageenan paw edema test; type: in vivo; conditions: oral
COX-2 = biological target: T1, COX-2 (Homo sapiens, UniProt P35354); assay: Human whole blood assay, COX-2 inhibition (PGE2 after LPS); type: cell-based; conditions: Conc. 0.1 μM, 24 h
T1 construct: incubation of human blood with lipopolysaccharide (LPS), which induces COX-2 production in the blood; endogenous in cells; host or cells: fresh human whole blood from male volunteers, LPS-stimulated, aspirin-pretreated
T1 sequence (P35354 18-604): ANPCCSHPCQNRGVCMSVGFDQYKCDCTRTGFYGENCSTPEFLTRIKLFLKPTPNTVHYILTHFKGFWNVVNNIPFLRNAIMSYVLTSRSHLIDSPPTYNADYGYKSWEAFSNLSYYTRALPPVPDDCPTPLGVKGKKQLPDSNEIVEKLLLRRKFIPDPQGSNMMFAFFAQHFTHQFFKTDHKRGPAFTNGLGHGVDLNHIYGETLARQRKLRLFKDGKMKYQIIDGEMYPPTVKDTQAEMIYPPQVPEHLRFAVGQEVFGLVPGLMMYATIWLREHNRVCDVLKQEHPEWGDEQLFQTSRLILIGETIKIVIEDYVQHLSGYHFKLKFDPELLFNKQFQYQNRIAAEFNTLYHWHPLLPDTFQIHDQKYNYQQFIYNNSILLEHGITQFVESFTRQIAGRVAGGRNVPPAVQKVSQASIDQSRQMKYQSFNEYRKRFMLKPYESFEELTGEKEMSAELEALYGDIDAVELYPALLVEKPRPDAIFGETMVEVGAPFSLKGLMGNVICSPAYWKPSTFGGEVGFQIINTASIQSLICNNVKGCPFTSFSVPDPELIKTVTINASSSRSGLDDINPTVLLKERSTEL
Experimental: The COX-2 inhibition activity of the compounds illustrated in the examples was determined by the following method. Human Whole Blood Assay Human whole blood provides a protein and cell rich milieu appropriate for the study of biochemical efficacy of anti-inflammatory compounds such as selective COX-2 inhibitors. […] This is correlating with the observation that COX-2 inhibitors have no effect on prostaglandin E2 (PGE2) production in normal blood. These inhibitors are active only after incubation of human blood with lipopolysaccharide (LPS), which induces COX-2 production in the blood. Method Fresh blood was collected in tubes containing potassium EDTA by vein puncture from male volunteers. The subjects should have no apparent inflammatory conditions and not taken NSAIDs for atleast 7 days prior to blood collection. Blood was treated with aspirin in vitro (10 μg/ml, at time zero) to inactivate COX-1, and then with LPS (10 μg/ml) along with test agents or vehicle. The blood was incubated for 24 h at 37° C., after which the tubes were centrifuged, the plasma was separated and stored at −80° C. (J. Pharmacol. Exp. Ther., 271, 1705, 1994; Proc. Natl. Acad. Sci. USA., 96, 7563, 1999). The plasma was assayed for PGE2 using Cayman ELISA kit as per the procedure outlined by the manufacturer (Cayman Chemicals, Ann Arbor, USA). The plasma was also tested for TNF-α, IL-1β, and IL-6 using appropriate human ELISA kit as per the procedure of manufacturer (Cayman Chemicals, Ann Arbor, USA).

| melting point | SMILES | further results |
| --- | --- | --- |
| 223 to 225 °C | Cc1ccc(-c2nc(Cl)nc(Cl)c2-c2ccc(Cl)cc2)cc1 | – |
| 126 to 128 °C | [N-]=[N+]=Nc1nc(C(F)(F)F)nc(-c2ccccc2)c1-c1ccccc1 | – |
| 172 to 175 °C | CS(=O)(=O)c1ccc(-c2nc(C(F)(F)F)nc(N=[N+]=[N-])c2-c2ccccc2)cc1 | – |
| 317 to 320 °C | CS(=O)(=O)c1ccc(-c2nc(C(F)(F)F)nc(N=[N+]=[N-])c2-c2ccc(Cl)cc2)cc1 | – |
| 285 to 288 °C | CS(=O)(=O)c1ccc(-c2nc(C(F)(F)F)nc(N=[N+]=[N-])c2-c2ccc(F)cc2)cc1 | – |
| 175 to 177 °C | NNc1nc(C(F)(F)F)nc(-c2ccc(F)cc2)c1-c1ccccc1 | – |
| 266 to 269 °C | CS(=O)(=O)c1ccc(-c2nc(C(F)(F)F)nc(NN)c2-c2ccc(Cl)cc2)cc1 | – |
| 286 to 290 °C | CS(=O)(=O)c1ccc(-c2nc(C(F)(F)F)nc(NN)c2-c2ccc(F)cc2)cc1 | – |
| 272 to 274 °C | CSc1ccc(-c2c(NN)nc(Cl)nc2-c2ccccc2)cc1 | – |
| 67 to 68 °C | Fc1ccc(-c2nc(C(F)(F)F)nc(Cl)c2-c2ccccc2)cc1 | – |
| 207 to 210 °C | CSc1ccc(-c2c(NN)nc(NN)nc2-c2ccccc2)cc1 | – |
| 113 to 116 °C | CC(=O)NNc1nc(C(F)(F)F)nc(-c2ccccc2)c1-c1ccccc1 | – |
| 149 to 153 °C | CC(=O)NNc1nc(C(F)(F)F)nc(-c2ccc(F)cc2)c1-c1ccccc1 | – |
| 265 to 268 °C | CC(=O)NNc1nc(C(F)(F)F)nc(-c2ccc(S(C)(=O)=O)cc2)c1-c1ccccc1 | – |
| 254 to 256 °C | CC(=O)NNc1nc(C(F)(F)F)nc(-c2ccc(S(C)(=O)=O)cc2)c1-c1ccc(Cl)cc1 | – |
| 307 to 309 °C | CS(=O)(=O)c1ccc(-c2nc(C(F)(F)F)nc(NNC(=O)C(F)(F)F)c2-c2ccc(Cl)cc2)cc1 | – |

| melting point | SMILES | further results |
| --- | --- | --- |
| 141 to 143 °C | O=c1nc(Cl)cc(-c2ccccc2)n1-c1ccccc1 | – |
| 105 to 107 °C | FC(F)(F)c1nc(Cl)c(-c2ccccc2)c(-c2ccccc2)n1 [Example 1, 4-chloro-5,6-diphenyl-2-(trifluoromethyl)pyrimidine] | inhibition at 1 µM (IL-6): 62.5% |
| 97 to 100 °C | Cc1ccc(-c2nc(C(F)(F)F)nc(Cl)c2-c2ccccc2)cc1 [Example 2, 4-chloro-6-(4-methylphenyl)-5-phenyl-2-(trifluoromethyl)pyrimidine] | inhibition at 1 µM (IL-6): 62.3% |
| 156 to 159 °C | CS(=O)(=O)c1ccc(-c2nc(C(F)(F)F)nc(Cl)c2-c2ccccc2)cc1 [Example 4, 4-chloro-6-[4-(methylsulfonyl)phenyl]-5-phenyl-2-(trifluoromethyl)pyrimidine] | inhibition at 10 µM (TNF-α; Conc. 10 μM): 55.4%; Percentage Growth Breast MCF7 (MCF7): 0; Percentage Growth Lung NCI-H460 (NCI-H460): 0; Percentage Growth CNS SF-268 (SF-268): 3 |
| 144 to 146 °C | Clc1nc(Cl)c(-c2ccccc2)c(-c2ccccc2)n1 [Example 7, 2,4-dichloro-5,6-diphenylpyrimidine] | Rat Paw Edema model % Inhibition (10 mg/kg body weight) (Male Wistar rats): 60.9% |
| 130 to 132 °C | Cc1ccc(-c2nc(Cl)nc(Cl)c2-c2ccccc2)cc1 [Example 8, 2,4-dichloro-6-(4-methylphenyl)-5-phenylpyrimidine] | Percentage Growth Breast MCF7 (MCF7): 5; Percentage Growth Lung NCI-H460 (NCI-H460): 1; Percentage Growth CNS SF-268 (SF-268): 6 |
| 129 to 131 °C | Clc1ccc(-c2nc(Cl)nc(Cl)c2-c2ccccc2)cc1 [Example 9, 6-(4-chlorophenyl)-2,4-dichloro-5-phenylpyrimidine] | Percentage Growth Breast MCF7 (MCF7): 1; Percentage Growth Lung NCI-H460 (NCI-H460): 0; Percentage Growth CNS SF-268 (SF-268): 1; inhibition at 0.1 µM (COX-2): 60.5%; Rat Paw Edema model % Inhibition (10 mg/kg body weight) (Male Wistar rats): 42.8% |
| 123 to 125 °C | Clc1ccc(-c2c(Cl)nc(Cl)nc2-c2ccccc2)cc1 [Example 10, 5-(4-chlorophenyl)-2,4-dichloro-6-phenylpyrimidine] | Percentage Growth Breast MCF7 (MCF7): 0; Percentage Growth Lung NCI-H460 (NCI-H460): 0; Percentage Growth CNS SF-268 (SF-268): 0 |
| 132 to 134 °C | COc1ccc(-c2c(Cl)nc(Cl)nc2-c2ccccc2)cc1 [Example 11, 2,4-dichloro-5-(4-methoxyphenyl)-6-phenylpyrimidine] | inhibition at 1 µM (TNF-α; Conc. 1 μM): 29.2%; Percentage Growth Breast MCF7 (MCF7): 5; Percentage Growth Lung NCI-H460 (NCI-H460): 0; Percentage Growth CNS SF-268 (SF-268): 2 |
| 88 to 90 °C | CSc1ccc(-c2c(Cl)nc(Cl)nc2-c2ccccc2)cc1 [Example 12, 2,4-dichloro-5-[4-(methylthio)phenyl]-6-phenylpyrimidine] | Percentage Growth Breast MCF7 (MCF7): −1; Percentage Growth Lung NCI-H460 (NCI-H460): 0; Percentage Growth CNS SF-268 (SF-268): 4 |
| 144 to 146 °C | CSc1ccc(-c2c(Cl)nc(Cl)nc2-c2ccc(Cl)cc2)cc1 [Example 13, 2,4-dichloro-6-(4-chlorophenyl)-5-[4-(methylthio)phenyl]pyrimidine] | inhibition at 0.1 µM (COX-2): 45.7%; Rat Paw Edema model % Inhibition (10 mg/kg body weight) (Male Wistar rats): 47.8% |
| 182 to 186 °C | NNc1nc(C(F)(F)F)nc(-c2ccccc2)c1-c1ccccc1 [Example 21, 4-hydrazino-5,6-diphenyl-2-(trifluoromethyl)pyrimidine] | inhibition at 1 µM (IL-6): 67.5% |
| 188 to 191 °C | Cc1ccc(-c2nc(C(F)(F)F)nc(NN)c2-c2ccccc2)cc1 [Example 22, 4-hydrazino-6-(4-methylphenyl)-5-phenyl-2-(trifluoromethyl)pyrimidine] | inhibition at 1 µM (IL-6): 52.3% |
| 272 to 275 °C | CS(=O)(=O)c1ccc(-c2nc(C(F)(F)F)nc(NN)c2-c2ccccc2)cc1 [Example 24, 4-hydrazino-6-[4-(methylsulfonyl)phenyl]-5-phenyl-2-(trifluoromethyl)pyrimidine] | inhibition at 10 µM (IL-6): 66% |
| 147 to 152 °C | CC(=O)NNc1nc(C(F)(F)F)nc(-c2ccc(C)cc2)c1-c1ccccc1 [Example 32, N′-[6-(4-methylphenyl)-5-phenyl-2-(trifluoromethyl)pyrimidin-4-yl]acetohydrazide] | inhibition at 10 µM (IL-6): 53.3% |
